The record followed here is patent US20260317324A1, “BIFUNCTIONAL COMPOUNDS FOR DEGRADING BRAF VIA UBIQUITIN PROTEOSOME PATHWAY” (Nurix Therapeutics, Inc., priority 2023, published 2026).

Holding throughout (assay type): cell-based
One assay concerns the target T1, BRAF D594G (Homo sapiens, UniProt P15056, D594G).
T1 construct: Horizon Discovery (HCT-116 BRAF−/− cells); host or cells: HCT-116 BRAF−/− cells, clone 63, lentiviral transduction
As to the kind of experiment: BRAF HiBiT degradation assay, C-terminal HiBiT-tagged BRAF D594G overexpressed in HCT-116 BRAF−/− cells (clone 63), Nano-Glo HiBiT Lytic assay. From the text: (§1) An A375 cell line expressing a homozygous V600E mutation was purchased from ATCC (Manassas, VA, USA). An A375 clone 1F10 cell line with an endogenous C-terminal HiBiT fusion tag on BRAF V600E allele was generated internally using CRISPR-Cas9 technology and cultured in DMEM, high glucose supplemented with 10% FBS and 1× GlutaMAX. A HCT-116 BRAF−/− cell line overexpressing the C-terminal HiBiT-tagged G466V, G469A, and D594G mutants were generated by lentiviral transduction, externally at Biosettia Inc (San Diego, CA, USA). The stably transfected cells were cultured in RPMI media supplemented with 10% FBS, 1× GlutaMAX, and 0.25 μg/ml puromycin. DMEM medium, RPMI 1640 medium, GlutaMAX, fetal bovine serum (FBS), and puromycin were purchased from Gibco (Grand Island, NY, USA). HCT-116 BRAF−/− cells were purchased from Horizon Discovery (Waterbeach, UK).
(§2) The C-terminal HiBiT tagged mutant BRAF G466V, G469A, and D594G overexpressed in HCT-116 BRAF−/− cells (monoclonal cell line, cell clones 8, 34, and 63, respectively) were seeded at the density of 3,000 cells/well in 30 μL media (RPMI supplemented with 10% FBS and 1× GlutaMAX) in white opaque 384-well plates (Corning #3570) from column 1 to column 23. Wildtype HCT-116 BRAF cells were seeded in column 24 at the same cell density in 30 μL media. Cells were incubated at 37° C. with 5% CO2 for 24 h.
(§3) Intermediate compound dilution series (5-point, ranging from 5 mM to 0.5 μM, 10-fold dilutions in DMSO) were prepared in a source plate (Beckman Coulter cat. no. 001-16128). Final compound dilution series (11-point, ranging from 1 μM to 0.01 nM, half-log dilutions in DMSO) were stamped into the assay plate (Corning #3570, column 1-11 and 12-22) using the Echo Acoustic Liquid Handler (Beckman Coulter). Each compound was plated in duplicate, and the total volume of compound DMSO solution was 60 nL/well (0.2% final DMSO concentration). DMSO was included in wells A23-L23 and A24-L24. The DMSO-treated HiBiT-tagged samples served as Negative Control (NC) and the DMSO-treated wildtype samples served as Background Control (BC) for the HiBiT assay.
(§4) HiBiT signal was measured by a Nano-Glo HiBiT Lytic assay (Promega cat. no. N3050). HiBiT lytic detection reagent (Nano-Glo HiBiT Lytic Buffer with 1:50 Nano-Glo HiBiT Lytic Substrate and 1:100 LgBiT Protein, 40 μL) was added using Bravo. The mixture was incubated at room temperature, in the dark, and with gentle shaking for 10 min. Luminesce units (LU) were read on an EnVision plate reader 2105 (Perkin Elmer).
(§5) Percent protein remaining and viability remaining per sample were calculated as follows: […]
(§6) % Protein remaining values were plotted as a function of compound concentration. XC50 (DC50) values were determined by fitting curves using the following equation:
(§7) For the HiBiT degradation assay, the key parameters reported include: • The dose of compound that produces 50% degradation (DC50 at 50%): • DC50 at 50%: the Fitted X value (Conc.) at Y=50 (response) • Observed Dmax (Obs. Dmax) is the percentage protein degraded at maximal compound effect relative to DMSO-treated control: […]

The next assay addresses T2, BRAF G466V (Homo sapiens, UniProt P15056, G466V).
T2 construct: Horizon Discovery (HCT-116 BRAF−/− cells); host or cells: HCT-116 BRAF−/− cells, clone 8, lentiviral transduction
Description: BRAF HiBiT degradation assay, C-terminal HiBiT-tagged BRAF G466V overexpressed in HCT-116 BRAF−/− cells (clone 8), Nano-Glo HiBiT Lytic assay.
Source text: as §1, §2, §3, §4, §5, §6, §7

For another assay, the target named is T3, BRAF V600E (Homo sapiens, UniProt P15056, V600E).
T3 construct: endogenous C-terminal HiBiT fusion tag on BRAF V600E allele; endogenous in cells; host or cells: A375 clone 1F10 (CRISPR-Cas9 knock-in of the HiBiT tag; parental A375 from ATCC)
T3 sequence (P15056 whole entry V600E, the tested form may be a part): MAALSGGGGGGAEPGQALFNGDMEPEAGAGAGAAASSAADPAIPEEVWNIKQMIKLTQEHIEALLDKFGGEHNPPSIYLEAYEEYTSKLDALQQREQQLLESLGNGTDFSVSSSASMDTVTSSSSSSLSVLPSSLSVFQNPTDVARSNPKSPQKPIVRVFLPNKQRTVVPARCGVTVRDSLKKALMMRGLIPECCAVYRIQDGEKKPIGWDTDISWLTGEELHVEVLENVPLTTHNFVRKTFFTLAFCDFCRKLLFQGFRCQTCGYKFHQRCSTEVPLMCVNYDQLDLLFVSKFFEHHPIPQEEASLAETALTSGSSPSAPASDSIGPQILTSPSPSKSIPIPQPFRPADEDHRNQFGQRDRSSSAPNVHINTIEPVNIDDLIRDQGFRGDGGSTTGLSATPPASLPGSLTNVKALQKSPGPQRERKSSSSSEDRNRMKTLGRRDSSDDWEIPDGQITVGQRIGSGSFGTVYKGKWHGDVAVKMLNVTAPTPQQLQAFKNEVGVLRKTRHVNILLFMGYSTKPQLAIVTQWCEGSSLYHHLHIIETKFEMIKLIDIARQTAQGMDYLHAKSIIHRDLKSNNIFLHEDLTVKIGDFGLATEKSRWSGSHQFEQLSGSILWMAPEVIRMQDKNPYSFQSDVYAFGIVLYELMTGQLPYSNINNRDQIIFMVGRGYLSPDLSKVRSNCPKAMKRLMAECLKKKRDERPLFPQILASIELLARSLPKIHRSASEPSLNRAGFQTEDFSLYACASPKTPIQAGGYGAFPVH
As to the kind of experiment: BRAF HiBiT degradation assay, C-terminal HiBiT-tagged BRAF V600E A375 cells (clone 1F10), Nano-Glo HiBiT Lytic assay. The conditions noted are these: for Dmax: A-375. An outline of the steps:
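A375 cells (clone 1F10, endogenous C-terminal HiBiT on BRAF V600E) were seeded at 10,000 cells/well, grown 24 h, then dosed in duplicate with an 11-point series from 1 μM to 0.01 nM (0.2% DMSO). Nano-Glo HiBiT lytic luminescence was normalised to DMSO and wildtype-A375 background; DC50 was read at 50% protein remaining, alongside observed Dmax.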

Another assay has as its target T4, BRAF G469A (Homo sapiens, UniProt P15056, G469A).
T4 construct: Horizon Discovery (HCT-116 BRAF−/− cells); host or cells: HCT-116 BRAF−/− cells, clone 34, lentiviral transduction
Description: BRAF HiBiT degradation assay, C-terminal HiBiT-tagged BRAF G469A overexpressed in HCT-116 BRAF−/− cells (clone 34), Nano-Glo HiBiT Lytic assay.
Source text: as §1, §2, §3, §4, §5, §6, §7

Setting [1] is: BRAF D594G (Class 3), HCT-116 BRAF−/− cells, DC50 at 50% degradation.
Where [2] appears, read: BRAF D594G (Class 3), HCT-116 BRAF−/− cells, observed Dmax relative to DMSO control.
Where [3] appears, read: BRAF G466V (Class 3), HCT-116 BRAF−/− cells, DC50 at 50% degradation.
The mark [4] stands for this setting: BRAF G466V (Class 3), HCT-116 BRAF−/− cells, observed Dmax relative to DMSO control.
The mark [5] stands for this setting: A375 (BRAF V600E, Class 1), DC50 at 50% degradation.
[6] abbreviates: A375 (BRAF V600E, Class 1), observed Dmax, % protein degraded relative to DMSO control.
Setting [7] is: BRAF G469A (Class 2), HCT-116 BRAF−/− cells, DC50 at 50% degradation.
[8] abbreviates: BRAF G469A (Class 2), HCT-116 BRAF−/− cells, observed Dmax relative to DMSO control.
The mark [9] stands for this setting: BRAF D594G, DC50 at 50%: fitted conc. at Y=50.
Where [10] appears, read: HCT-116, BRAF D594G, percentage protein degraded at maximal compound effect relative to DMSO.
Where [11] appears, read: BRAF G466V, DC50 at 50%: fitted conc. at Y=50.
Where [12] appears, read: HCT-116, BRAF G466V, percentage protein degraded at maximal compound effect relative to DMSO.
[13] abbreviates: A375 (BRAF V600E), DC50 at 50%: fitted conc. at Y=50.
The mark [14] stands for this setting: A375 (BRAF V600E), percentage protein degraded at maximal compound effect relative to DMSO.
The mark [15] stands for this setting: Class 2, BRAF G469A, DC50 at 50%: fitted conc. at Y=50.
Where [16] appears, read: HCT-116, Class 2, BRAF G469A, percentage protein degraded at maximal compound effect relative to DMSO.

T1 sequence (P15056 whole entry D594G): as the sequence (P15056 whole entry V600E, the tested form may be a part) above, with D594G, E600V counted along it
T4 sequence (P15056 whole entry G469A): as the sequence (P15056 whole entry V600E, the tested form may be a part) above, with G469A, E600V counted along it
T2 sequence (P15056 whole entry G466V): as the sequence (P15056 whole entry V600E, the tested form may be a part) above, with G466V, E600V counted along it

With `O=C1CC[C@H](c2ccc(N3CCC(CN4CCN(c5ccc(-n6cc(-c7cc(C(F)F)cc(NS(=O)(=O)N8CCCC8)c7F)c(-c7ccncc7)n6)c(F)c5)CC4)CC3)cc2)C(=O)N1` [Compound 362, N-[5-(difluoromethyl)-3-[1-(4-{4-[(1-{4-[(3R)-2,6-dioxopiperidin-3-yl]phenyl}piperidin-4-yl)methyl]piperazin-1-yl}-2-fluorophenyl)-3-(pyridin-4-yl)-1H-pyrazol-4-yl]-2-fluorophenyl]pyrrolidine-1-sulfonamide], the DC50 was below 10 nM at BRAF D594G (setting [1]), below 10 nM on BRAF G466V (setting [3]), below 10 nM at BRAF V600E (setting [5]) and 10 to 50 nM at BRAF G469A (setting [7]). Also, the maximal degradation (Dmax) at BRAF D594G (setting [2]) is 30 to 70%; on BRAF G466V (setting [4]) it was above 70%; on BRAF V600E (setting [6]), above 70%; at BRAF G469A (setting [8]), 30 to 70%.
As for `CCCS(=O)(=O)Nc1cccc(-c2cn(-c3ccc(C4CCN(CC5CCN(c6ccc(C7CCC(=O)NC7=O)cc6F)CC5)CC4)cc3)nc2-c2ccncc2)c1F` (racemic) [Compound 22, Rac-N-{3-[1-(4-{1-[(1-{4-[(3R)-2,6-dioxopiperidin-3-yl]-2-fluorophenyl}piperidin-4-yl)methyl]piperidin-4-yl}phenyl)-3-(pyridin-4-yl)-1H-pyrazol-4-yl]-2-fluorophenyl}propane-1-sulfonamide], the DC50 at BRAF D594G (setting [9]) was above 500 nM; on BRAF G466V (setting [11]), 50 to 500 nM; at BRAF V600E (setting [13]) it was 10 to 50 nM; on BRAF G469A (setting [15]), above 500 nM. Besides, the Dmax is 30 to 70% at BRAF D594G (setting [10]), 30 to 70% at BRAF G466V (setting [12]), above 70% at BRAF V600E (setting [14]) and below 30% at BRAF G469A (setting [16]).
In the case of `CCCS(=O)(=O)Nc1cccc(-c2nc(C(C)(C)C)sc2-c2ccnc(Nc3cccc(OC4CCN(CC[C@H]5CCN(c6ccc(C7CCC(=O)NC7=O)cn6)C5)CC4)c3)n2)c1F` (mixture of isomers) [Compound 69, N-(3-{2-tert-butyl-5-[2-({3-[(1-{2-[(3S)-1-{5-[(3RS)-2,6-dioxopiperidin-3-yl]pyridin-2-yl}pyrrolidin-3-yl]ethyl}piperidin-4-yl)oxy]phenyl}amino)pyrimidin-4-yl]-1,3-thiazol-4-yl}-2-fluorophenyl)propane-1-sulfonamide], the half-maximal degradation concentration (DC50) on BRAF D594G (setting [9]) was above 500 nM; on BRAF G466V (setting [11]) it was above 500 nM; at BRAF V600E (setting [13]), 10 to 50 nM; on BRAF G469A (setting [15]) it was above 500 nM. Moreover, the Dmax at BRAF D594G (setting [10]) was 30 to 70%; on BRAF G466V (setting [12]), 30 to 70%; on BRAF V600E (setting [14]), above 70%; on BRAF G469A (setting [16]) it was below 30%.
For the compound `CCC(C)S(=O)(=O)Nc1cc(Cl)cc(-c2cn(-c3ccc(N4CCN(CC5CCN(c6ccc(N7CCC(=O)NC7=O)cc6)CC5)CC4)cc3)nc2-c2ccncc2)c1F` (racemic) [Compound 328, Rac-(2R)—N-[5-chloro-3-(1-{4-[4-({1-[4-(2,4-dioxo-1,3-diazinan-1-yl)phenyl]piperidin-4-yl}methyl)piperazin-1-yl]phenyl}-3-(pyridin-4-yl)-1H-pyrazol-4-yl)-2-fluorophenyl]butane-2-sulfonamide], the DC50 was below 10 nM on BRAF D594G (setting [1]), 10 to 50 nM on BRAF G466V (setting [3]), below 10 nM on BRAF V600E (setting [5]) and 50 to 500 nM on BRAF G469A (setting [7]). The Dmax at BRAF D594G (setting [2]) is 30 to 70%; at BRAF G466V (setting [4]), above 70%; on BRAF V600E (setting [6]), above 70%; at BRAF G469A (setting [8]) it was 30 to 70%.
On to `CCN(C)S(=O)(=O)Nc1cc(F)cc(-c2cn(-c3ccc(N4CCN(CC5CCN(c6ccc([C@H]7CCC(=O)NC7=O)cn6)CC5)CC4)cc3)nc2-c2ccncc2)c1F` [Compound 375, (3R)-3-(6-{4-[(4-{4-[4-(3-{[ethyl(methyl)sulfamoyl]amino}-2,5-difluorophenyl)-3-(pyridin-4-yl)-1H-pyrazol-1-yl]phenyl}piperazin-1-yl)methyl]piperidin-1-yl}pyridin-3-yl)piperidine-2,6-dione], for which the DC50 on BRAF D594G (setting [1]) is below 10 nM; at BRAF G466V (setting [3]) it was below 10 nM; on BRAF V600E (setting [5]) it was below 10 nM; at BRAF G469A (setting [7]) it was 10 to 50 nM. Besides, the Dmax on BRAF D594G (setting [2]), at BRAF G466V (setting [4]), at BRAF V600E (setting [6]) and at BRAF G469A (setting [8]) was above 70% each time.
For the compound `C[C@@H]1CN(c2ccc(-n3cc(-c4cc(Cl)cc(NS(=O)(=O)N5CC[C@@H](F)C5)c4F)c(-c4ccncc4)n3)nc2)CCN1CC1CCN(c2ccc([C@H]3CCC(=O)NC3=O)cc2)CC1` [Compound 320, (3R)—N-[5-chloro-3-(1-{5-[(3R)-4-[(1-{4-[(3R)-2,6-dioxopiperidin-3-yl]phenyl}piperidin-4-yl)methyl]-3-methylpiperazin-1-yl]pyridin-2-yl}-3-(pyridin-4-yl)-1H-pyrazol-4-yl)-2-fluorophenyl]-3-fluoropyrrolidine-1-sulfonamide], the DC50 at BRAF D594G (setting [1]), at BRAF G466V (setting [3]), at BRAF V600E (setting [5]) and at BRAF G469A (setting [7]) was below 10 nM each time. Also, the maximal degradation (Dmax) on BRAF D594G (setting [2]), at BRAF G466V (setting [4]), at BRAF V600E (setting [6]) and at BRAF G469A (setting [8]) was above 70% in each case.
Turning to `CCCS(=O)(=O)Nc1cccc(-c2nc(-c3ccc(C4CCN(CC5CCN(c6ccc([C@@H]7CCC(=O)NC7=O)cc6)CC5)CC4)cc3)sc2-c2ccnc(N)n2)c1F` [Compound 192, N-{3-[5-(2-aminopyrimidin-4-yl)-2-(4-{1-[(1-{4-[(3S)-2,6-dioxopiperidin-3-yl]phenyl}piperidin-4-yl)methyl]piperidin-4-yl}phenyl)-1,3-thiazol-4-yl]-2-fluorophenyl}propane-1-sulfonamide], the DC50 at BRAF D594G (setting [9]) is above 500 nM; on BRAF G466V (setting [11]), above 500 nM; at BRAF V600E (setting [13]), 10 to 50 nM; on BRAF G469A (setting [15]) it was above 500 nM. The Dmax was 30 to 70% on BRAF D594G (setting [10]), 30 to 70% on BRAF G466V (setting [12]), above 70% on BRAF V600E (setting [14]) and below 30% at BRAF G469A (setting [16]).
